Drawing on PubChem BioAssay (NCI), this text covers TGI for four compounds.

Structures are written as SMILES.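 In this assay, cells in 96-well plates receive the compound at five concentrations for 48 hours. Endpoints are linearly interpolated between the surrounding concentrations. At the TGI there is no net growth.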

One experiment relates to HT29 colon. Nature of the experiment: NCI tumour cell line growth inhibition, 48 h.
As for `COc1cc(C(=O)N(C(=S)OCc2ccccn2)c2ccccc2)cc(OC)c1OC`, the TGI is more than 100 µM.
Still for that read-out and setting: as for `[N-]=[N+]=NC[C@H]1OCO[C@H](CN=[N+]=[N-])[C@@H](OCCOCCCl)[C@@H]1OCCOCCCl`, the figure is more than 100 µM.
Take `CC(=O)OC1CC(OC2C(O)CC(OC3C(O)CC(OC4CCC5(C)C(CCC6C5CC(O)C5(C)C(C7=CC(=O)OC7)CCC65O)C4)OC3C)OC2C)OC(C)C1OC1OC(CO)C(O)C(O)C1O` (stereo not given): the TGI is 0.252 µM.
In the case of `O=[N+]([O-])c1cccc(-c2csc(NNC3=NC/C(=C/c4ccc5c(c4)OCO5)S3)n2)c1`, the TGI turned out to be 65.4 µM.

The next experiment deals with SNB-75 CNS. The experiment can be described thus: NCI tumour cell line growth inhibition, 48 h.
`[N-]=[N+]=NC[C@H]1OCO[C@H](CN=[N+]=[N-])[C@@H](OCCOCCCl)[C@@H]1OCCOCCCl` showed a TGI of more than 100 µM.
`CC(=O)OC1CC(OC2C(O)CC(OC3C(O)CC(OC4CCC5(C)C(CCC6C5CC(O)C5(C)C(C7=CC(=O)OC7)CCC65O)C4)OC3C)OC2C)OC(C)C1OC1OC(CO)C(O)C(O)C1O` (stereo not given): the TGI stood at 0.846 µM.
`O=[N+]([O-])c1cccc(-c2csc(NNC3=NC/C(=C/c4ccc5c(c4)OCO5)S3)n2)c1` displayed a TGI of 46.5 µM.

The subject of a further experiment is CAKI-1 renal. The experiment can be described thus: NCI tumour cell line growth inhibition, 48 h.
For `COc1cc(C(=O)N(C(=S)OCc2ccccn2)c2ccccc2)cc(OC)c1OC`, the TGI was more than 100 µM.
As for `[N-]=[N+]=NC[C@H]1OCO[C@H](CN=[N+]=[N-])[C@@H](OCCOCCCl)[C@@H]1OCCOCCCl`, the TGI was more than 100 µM.
Compound `CC(=O)OC1CC(OC2C(O)CC(OC3C(O)CC(OC4CCC5(C)C(CCC6C5CC(O)C5(C)C(C7=CC(=O)OC7)CCC65O)C4)OC3C)OC2C)OC(C)C1OC1OC(CO)C(O)C(O)C1O` (stereo not given) registered a TGI of 0.0904 µM.
As for `O=[N+]([O-])c1cccc(-c2csc(NNC3=NC/C(=C/c4ccc5c(c4)OCO5)S3)n2)c1`, the TGI was more than 100 µM.

Another experiment concerns A498 renal. The experiment can be described thus: NCI tumour cell line growth inhibition, 48 h.
Turning to `COc1cc(C(=O)N(C(=S)OCc2ccccn2)c2ccccc2)cc(OC)c1OC`, the TGI is more than 100 µM.
Compound `CC(=O)OC1CC(OC2C(O)CC(OC3C(O)CC(OC4CCC5(C)C(CCC6C5CC(O)C5(C)C(C7=CC(=O)OC7)CCC65O)C4)OC3C)OC2C)OC(C)C1OC1OC(CO)C(O)C(O)C1O` (stereo not given) came in with a TGI of 0.413 µM.
`O=[N+]([O-])c1cccc(-c2csc(NNC3=NC/C(=C/c4ccc5c(c4)OCO5)S3)n2)c1`: the TGI came to 37 µM.

The next experiment has as its system MDA-N. The experiment can be described thus: NCI tumour cell line growth inhibition, 48 h.
For the compound `COc1cc(C(=O)N(C(=S)OCc2ccccn2)c2ccccc2)cc(OC)c1OC`, the TGI is more than 100 µM.
`[N-]=[N+]=NC[C@H]1OCO[C@H](CN=[N+]=[N-])[C@@H](OCCOCCCl)[C@@H]1OCCOCCCl` showed a TGI of more than 100 µM.
The same measure, in the same setting: the same measure for `CC(=O)OC1CC(OC2C(O)CC(OC3C(O)CC(OC4CCC5(C)C(CCC6C5CC(O)C5(C)C(C7=CC(=O)OC7)CCC65O)C4)OC3C)OC2C)OC(C)C1OC1OC(CO)C(O)C(O)C1O` (stereo not given): 0.526 µM; for `O=[N+]([O-])c1cccc(-c2csc(NNC3=NC/C(=C/c4ccc5c(c4)OCO5)S3)n2)c1`: more than 100 µM.

A further experiment deals with MOLT-4 leukemia. The experiment can be described thus: NCI tumour cell line growth inhibition, 48 h.
On to `COc1cc(C(=O)N(C(=S)OCc2ccccn2)c2ccccc2)cc(OC)c1OC`, for which the TGI is more than 100 µM.
In turn, `[N-]=[N+]=NC[C@H]1OCO[C@H](CN=[N+]=[N-])[C@@H](OCCOCCCl)[C@@H]1OCCOCCCl` displayed a TGI of more than 100 µM.
`CC(=O)OC1CC(OC2C(O)CC(OC3C(O)CC(OC4CCC5(C)C(CCC6C5CC(O)C5(C)C(C7=CC(=O)OC7)CCC65O)C4)OC3C)OC2C)OC(C)C1OC1OC(CO)C(O)C(O)C1O` (stereo not given): the TGI was more than 100 µM.
In turn, `O=[N+]([O-])c1cccc(-c2csc(NNC3=NC/C(=C/c4ccc5c(c4)OCO5)S3)n2)c1` had a TGI of more than 100 µM.

The next experiment relates to HCT-15 colon. Nature of the experiment: NCI tumour cell line growth inhibition, 48 h.
On to `COc1cc(C(=O)N(C(=S)OCc2ccccn2)c2ccccc2)cc(OC)c1OC`, for which the TGI is more than 100 µM.
In turn, `[N-]=[N+]=NC[C@H]1OCO[C@H](CN=[N+]=[N-])[C@@H](OCCOCCCl)[C@@H]1OCCOCCCl` yielded a TGI of more than 100 µM.
In turn, `CC(=O)OC1CC(OC2C(O)CC(OC3C(O)CC(OC4CCC5(C)C(CCC6C5CC(O)C5(C)C(C7=CC(=O)OC7)CCC65O)C4)OC3C)OC2C)OC(C)C1OC1OC(CO)C(O)C(O)C1O` (stereo not given) had a TGI of 0.16 µM.
The compound `O=[N+]([O-])c1cccc(-c2csc(NNC3=NC/C(=C/c4ccc5c(c4)OCO5)S3)n2)c1` displayed a TGI of more than 100 µM.

For another experiment, the system named is LOX IMVI melanoma. Nature of the experiment: NCI tumour cell line growth inhibition, 48 h.
The compound `COc1cc(C(=O)N(C(=S)OCc2ccccn2)c2ccccc2)cc(OC)c1OC` came in with a TGI of more than 100 µM.
Compound `[N-]=[N+]=NC[C@H]1OCO[C@H](CN=[N+]=[N-])[C@@H](OCCOCCCl)[C@@H]1OCCOCCCl` displayed a TGI of more than 100 µM.
The compound `CC(=O)OC1CC(OC2C(O)CC(OC3C(O)CC(OC4CCC5(C)C(CCC6C5CC(O)C5(C)C(C7=CC(=O)OC7)CCC65O)C4)OC3C)OC2C)OC(C)C1OC1OC(CO)C(O)C(O)C1O` (stereo not given) displayed a TGI of 0.161 µM.
In turn, `O=[N+]([O-])c1cccc(-c2csc(NNC3=NC/C(=C/c4ccc5c(c4)OCO5)S3)n2)c1` registered a TGI of more than 100 µM.

Another experiment relates to COLO 205 colon. The experiment can be described thus: NCI tumour cell line growth inhibition, 48 h.
Turning to `COc1cc(C(=O)N(C(=S)OCc2ccccn2)c2ccccc2)cc(OC)c1OC`, the TGI was more than 100 µM.
As to `[N-]=[N+]=NC[C@H]1OCO[C@H](CN=[N+]=[N-])[C@@H](OCCOCCCl)[C@@H]1OCCOCCCl`, the TGI is more than 100 µM.
Regarding `CC(=O)OC1CC(OC2C(O)CC(OC3C(O)CC(OC4CCC5(C)C(CCC6C5CC(O)C5(C)C(C7=CC(=O)OC7)CCC65O)C4)OC3C)OC2C)OC(C)C1OC1OC(CO)C(O)C(O)C1O` (stereo not given), the TGI was determined as 0.394 µM.
Turning to `O=[N+]([O-])c1cccc(-c2csc(NNC3=NC/C(=C/c4ccc5c(c4)OCO5)S3)n2)c1`, the TGI is 98.7 µM.

Another experiment has as its system SK-MEL-2 melanoma. The experiment can be described thus: NCI tumour cell line growth inhibition, 48 h.
For the compound `COc1cc(C(=O)N(C(=S)OCc2ccccn2)c2ccccc2)cc(OC)c1OC`, the TGI was more than 100 µM.
For the compound `[N-]=[N+]=NC[C@H]1OCO[C@H](CN=[N+]=[N-])[C@@H](OCCOCCCl)[C@@H]1OCCOCCCl`, the TGI is more than 100 µM.
On the same count and under the same terms, the same measure for `CC(=O)OC1CC(OC2C(O)CC(OC3C(O)CC(OC4CCC5(C)C(CCC6C5CC(O)C5(C)C(C7=CC(=O)OC7)CCC65O)C4)OC3C)OC2C)OC(C)C1OC1OC(CO)C(O)C(O)C1O` (stereo not given): 0.488 µM; for `O=[N+]([O-])c1cccc(-c2csc(NNC3=NC/C(=C/c4ccc5c(c4)OCO5)S3)n2)c1`: 56.5 µM.

A further experiment relates to CCRF-CEM leukemia. Nature of the experiment: NCI tumour cell line growth inhibition, 48 h.
In turn, `COc1cc(C(=O)N(C(=S)OCc2ccccn2)c2ccccc2)cc(OC)c1OC` displayed a TGI of more than 100 µM.
Regarding `[N-]=[N+]=NC[C@H]1OCO[C@H](CN=[N+]=[N-])[C@@H](OCCOCCCl)[C@@H]1OCCOCCCl`, the TGI was more than 100 µM.
`O=[N+]([O-])c1cccc(-c2csc(NNC3=NC/C(=C/c4ccc5c(c4)OCO5)S3)n2)c1`: the TGI was more than 100 µM.

The subject of a further experiment is DU-145 prostate. The experiment can be described thus: NCI tumour cell line growth inhibition, 48 h.
`COc1cc(C(=O)N(C(=S)OCc2ccccn2)c2ccccc2)cc(OC)c1OC` had a TGI of more than 100 µM.
The compound `[N-]=[N+]=NC[C@H]1OCO[C@H](CN=[N+]=[N-])[C@@H](OCCOCCCl)[C@@H]1OCCOCCCl` showed a TGI of more than 100 µM.
On the same count and under the same terms, as for `CC(=O)OC1CC(OC2C(O)CC(OC3C(O)CC(OC4CCC5(C)C(CCC6C5CC(O)C5(C)C(C7=CC(=O)OC7)CCC65O)C4)OC3C)OC2C)OC(C)C1OC1OC(CO)C(O)C(O)C1O` (stereo not given), the figure is 0.106 µM; as for `O=[N+]([O-])c1cccc(-c2csc(NNC3=NC/C(=C/c4ccc5c(c4)OCO5)S3)n2)c1`, more than 100 µM.

A further experiment relates to HCC-2998 colon. Nature of the experiment: NCI tumour cell line growth inhibition, 48 h.
The compound `[N-]=[N+]=NC[C@H]1OCO[C@H](CN=[N+]=[N-])[C@@H](OCCOCCCl)[C@@H]1OCCOCCCl` showed a TGI of more than 100 µM.
Compound `CC(=O)OC1CC(OC2C(O)CC(OC3C(O)CC(OC4CCC5(C)C(CCC6C5CC(O)C5(C)C(C7=CC(=O)OC7)CCC65O)C4)OC3C)OC2C)OC(C)C1OC1OC(CO)C(O)C(O)C1O` (stereo not given) gave a TGI of 0.441 µM.
Still for that read-out and setting: as for `O=[N+]([O-])c1cccc(-c2csc(NNC3=NC/C(=C/c4ccc5c(c4)OCO5)S3)n2)c1`, the figure is more than 100 µM.

The test system of another experiment is M14 melanoma. The experiment can be described thus: NCI tumour cell line growth inhibition, 48 h.
`COc1cc(C(=O)N(C(=S)OCc2ccccn2)c2ccccc2)cc(OC)c1OC` had a TGI of more than 100 µM.
Still for that read-out and setting: the same measure for `[N-]=[N+]=NC[C@H]1OCO[C@H](CN=[N+]=[N-])[C@@H](OCCOCCCl)[C@@H]1OCCOCCCl`: more than 100 µM.
Still for that read-out and setting: as for `CC(=O)OC1CC(OC2C(O)CC(OC3C(O)CC(OC4CCC5(C)C(CCC6C5CC(O)C5(C)C(C7=CC(=O)OC7)CCC65O)C4)OC3C)OC2C)OC(C)C1OC1OC(CO)C(O)C(O)C1O` (stereo not given), the figure is 0.343 µM; as for `O=[N+]([O-])c1cccc(-c2csc(NNC3=NC/C(=C/c4ccc5c(c4)OCO5)S3)n2)c1`, 96 µM.

The next experiment concerns U251 CNS. The experiment can be described thus: NCI tumour cell line growth inhibition, 48 h.
On to `COc1cc(C(=O)N(C(=S)OCc2ccccn2)c2ccccc2)cc(OC)c1OC`, for which the TGI was more than 100 µM.
`[N-]=[N+]=NC[C@H]1OCO[C@H](CN=[N+]=[N-])[C@@H](OCCOCCCl)[C@@H]1OCCOCCCl` yielded a TGI of more than 100 µM.
Regarding `CC(=O)OC1CC(OC2C(O)CC(OC3C(O)CC(OC4CCC5(C)C(CCC6C5CC(O)C5(C)C(C7=CC(=O)OC7)CCC65O)C4)OC3C)OC2C)OC(C)C1OC1OC(CO)C(O)C(O)C1O` (stereo not given), the TGI was 0.207 µM.
